{
  "source": "patent US12214036B2",
  "about": "“Combination therapy comprising AXL/MER and PD-1/PD-L1 inhibitors” (Incyte Corporation, priority 2020, dated 2025)",
  "tested_on": "MC38 tumor",
  "experiment": "MC38 tumor model, combination with checkpoint blockade",
  "assay_type": "in vivo, C57BL/6 mice",
  "description": "MBT-2 cells were obtained from the Japanese Collection of Research Bioresources Cell Bank and were maintained in DMEM supplemented with 10% FBS. MC38 cells were obtained from the NCI. 4T1 cells were obtained from ATCC and maintained in RPMI media supplemented with 10% FBS. For MBT-2 experiments, 5×10^5 MBT-2 cells were inoculated subcutaneously into the right hind flank of 6- to 8-week-old C3H mice or athymic nude mice (Charles River Laboratories, Wilmington, Mass.). For MC38 studies, 12-week old female C57BL/6 mice were inoculated with brei of MC38 tumors (in-vivo passage 6) into the right hind flank. For 4T1 studies, 7.5×10^5 4 T1 cells were inoculated subcutaneously into the right hind flank of 6- to 8-week-old female BALB/c mice or athymic nude mice (Charles River Laboratories). Mice were randomized by tumor volume with n=10-12 per group. […] Mice were monitored for tumor growth and overt tolerability over the course of the experiment. […] Tumor volume was calculated using the formula (L×W^2)/2, where L and W refer to the length and width dimensions, respectively. Tumor growth inhibition (TGI) was calculated using the formula (1−(VT/VC))×100, where VT is the tumor volume of the treatment group on the last day of treatment, and VC is the tumor volume of the control group on the last day of treatment. […]",
  "data": [
    {"smiles": "CC(C)C(=O)N1CCC(c2cc(-c3ccc(NC(=O)c4cn(C(C)C)c(=O)n(-c5ccccn5)c4=O)cc3)c3c(N)ncnn23)CC1", "note": "[Compound 1, N-(4-(4-Amino-7-(1-isobutyrylpiperidin-4-yl)pyrrolo[1,2-f][1,2,4]triazin-5-yl)phenyl)-1-isopropyl-2,4-dioxo-3-(pyridin-2-yl)-1,2,3,4-tetrahydropyrimidine-5-carboxamide]", "values": [
      {"measurement": "antitumor activity (tumor volume)", "setting": "MC38 in C57BL/6 mice, Compound 1 oral BID, anti-PD-L1 15 mg/kg i.p. twice a week, FIG. 8A", "value": "single-agent antitumor activity"},
      {"measurement": "proliferation of CD4+ and CD8+ tumor-infiltrating lymphocytes (Ki67+)", "setting": "MC38 tumors, FIGS. 8B and 8C", "value": "induced proliferation"}
    ]}
  ]
}
